The results in this text go back to PubChem BioAssay (NCI).

SMILES strings stand for the structures.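 Exposure lasted 48 hours, with cells grown in 96-well plates and compounds tested at five concentrations. At the GI50, growth is halved. At the TGI there is no net growth.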 Some results are limits rather than exact numbers.

Among the test systems are HCT-15 colon; OVCAR-8 ovarian; ACHN renal; MOLT-4 leukemia; MALME-3M melanoma; SK-OV-3 ovarian; HCC-2998 colon; SNB-19 CNS; 786-0 renal; DU-145 prostate.
Experiment in all cases: DTP human tumour cell line panel, 48 h

For the compound `CC(C)(C)c1[nH]cnc1/C=c1\[nH]c(=O)/c(=C/c2ccccc2)[nH]c1=O`, the concentration for 50% growth inhibition (GI50) is < 0.01 µM with HCT-15 colon; < 0.0125 µM in the assay on OVCAR-8 ovarian; < 0.01 µM in the assay on ACHN renal; 0.0215 µM in the assay with MOLT-4 leukemia; < 0.105 µM in the assay on MALME-3M melanoma; < 0.01 µM in the assay with SK-OV-3 ovarian. The GI50 with HCC-2998 colon is 0.0307 µM; with SNB-19 CNS, < 0.01 µM; with 786-0 renal, < 0.01 µM; in the assay with DU-145 prostate it was 0.0159 µM. Moreover, the TGI was found to be 13.5 µM in the assay with HCT-15 colon; 50.8 µM with OVCAR-8 ovarian; 35.7 µM in the assay on ACHN renal; 19.7 µM in the assay with MOLT-4 leukemia; 29.8 µM in the assay with MALME-3M melanoma; 60.9 µM in the assay on SK-OV-3 ovarian. Moreover, the TGI is 33.1 µM with HCC-2998 colon, > 100 µM in the assay with SNB-19 CNS, 40.7 µM in the assay with 786-0 renal and 31.3 µM with DU-145 prostate.

With `COC(=O)c1ccc(NC(=O)Nc2ccc3oc(=O)c4ccccc4c3c2)cc1`, the GI50 in the assay on HCT-15 colon is > 100 µM; in the assay on OVCAR-8 ovarian it was 36.6 µM; in the assay with ACHN renal, 29.5 µM; in the assay with MOLT-4 leukemia, 17.6 µM; with MALME-3M melanoma, 28.7 µM; in the assay on SK-OV-3 ovarian, 40.3 µM. For the same compound, the GI50 with HCC-2998 colon is 27.1 µM; in the assay on SNB-19 CNS, 33 µM; with 786-0 renal, 18 µM; in the assay on DU-145 prostate, 56.1 µM. For the same compound, the TGI in the assay on HCT-15 colon was > 100 µM; in the assay with OVCAR-8 ovarian, > 100 µM; in the assay on ACHN renal it was > 100 µM; in the assay with MOLT-4 leukemia, 62.1 µM; with MALME-3M melanoma it was 73.7 µM; with SK-OV-3 ovarian it was > 100 µM. The concentration for total growth inhibition (TGI) in the assay on HCC-2998 colon is 74 µM; with SNB-19 CNS, 89.8 µM; in the assay on 786-0 renal, 41.9 µM; with DU-145 prostate, > 100 µM.

With `Cc1cccc(C(=O)/C=C/SC(=NC#N)SCc2ccccc2)c1`, the GI50 with HCT-15 colon is 39.1 µM; in the assay on OVCAR-8 ovarian, 35.6 µM; in the assay with ACHN renal, 25.6 µM; with MOLT-4 leukemia, 6.72 µM; with MALME-3M melanoma, 12.3 µM; with SK-OV-3 ovarian it was > 100 µM. The GI50 is 19.3 µM in the assay with HCC-2998 colon, 36.1 µM in the assay on SNB-19 CNS, 19.1 µM with 786-0 renal and 19.7 µM in the assay on DU-145 prostate. Besides, the TGI with HCT-15 colon was > 100 µM; in the assay with OVCAR-8 ovarian, > 100 µM; with ACHN renal, 67 µM; in the assay with MOLT-4 leukemia, > 100 µM; in the assay with MALME-3M melanoma, 32 µM; in the assay on SK-OV-3 ovarian it was > 100 µM. Also, the TGI in the assay on HCC-2998 colon was 39.4 µM; with SNB-19 CNS, > 100 µM; in the assay with 786-0 renal, 40.5 µM; with DU-145 prostate, 46.4 µM.

Regarding `O=c1c2ccccc2n2n1CC(O)C2` (stereo unspecified), the TGI with HCT-15 colon was > 100 µM; with OVCAR-8 ovarian, > 100 µM; with ACHN renal, > 24.6 µM; in the assay with MOLT-4 leukemia it was > 100 µM; with MALME-3M melanoma it was > 100 µM; in the assay with SK-OV-3 ovarian, > 100 µM. Besides, the TGI with HCC-2998 colon, in the assay with SNB-19 CNS, with 786-0 renal and with DU-145 prostate was > 100 µM throughout. In addition, the GI50 with DU-145 prostate is > 100 µM.

As to `COc1ccc(-c2nn(-c3cccc(NC(=O)c4ccc5c(c4)OCCO5)c3)cc2-c2ccncc2)cc1Cl`, the GI50 in the assay on HCT-15 colon was 1.61 µM; in the assay on OVCAR-8 ovarian, 2.47 µM; with ACHN renal it was 3.82 µM; with MOLT-4 leukemia, 2.46 µM; in the assay on MALME-3M melanoma, 0.833 µM; in the assay on SK-OV-3 ovarian it was 3.82 µM. Also, the GI50 in the assay on HCC-2998 colon was 5.48 µM; in the assay on SNB-19 CNS, 4.63 µM; with 786-0 renal, 1.78 µM; with DU-145 prostate it was 3.99 µM. The TGI with HCT-15 colon was 22.5 µM; with OVCAR-8 ovarian, > 100 µM; in the assay with ACHN renal, > 100 µM; with MOLT-4 leukemia it was 25.7 µM; in the assay on MALME-3M melanoma it was 6.72 µM; in the assay with SK-OV-3 ovarian, > 100 µM. For the same compound, the total growth inhibition concentration (TGI) in the assay with HCC-2998 colon was determined as 17.9 µM; with SNB-19 CNS it was 98.1 µM; with 786-0 renal, 5.91 µM; in the assay with DU-145 prostate it was 24.9 µM.

As to `O=C(Nc1ccc(Oc2ccc3nc(NC(=O)c4ccccc4)[nH]c3c2)cc1)Nc1cc(C(F)(F)F)ccc1F`, the GI50 in the assay with HCT-15 colon was 2.07 µM; with OVCAR-8 ovarian, 0.764 µM; in the assay with ACHN renal, 1.84 µM; in the assay on MOLT-4 leukemia it was 0.68 µM; with MALME-3M melanoma it was 1.3 µM; with SK-OV-3 ovarian, 4.38 µM. Further, the GI50 in the assay on HCC-2998 colon is 2.38 µM; in the assay with SNB-19 CNS, 5.56 µM; in the assay on 786-0 renal it was 7.32 µM; in the assay on DU-145 prostate, 1.32 µM. The TGI is > 25 µM in the assay on HCT-15 colon; 5.08 µM in the assay with OVCAR-8 ovarian; > 25 µM in the assay on ACHN renal; 3.83 µM with MOLT-4 leukemia; 11.9 µM in the assay on MALME-3M melanoma; 16.5 µM with SK-OV-3 ovarian. For the same compound, the TGI is > 21.5 µM in the assay on HCC-2998 colon, > 25 µM with SNB-19 CNS, > 25 µM with 786-0 renal and 16.6 µM in the assay on DU-145 prostate.

Take `Oc1c(CN2CCCC2)cc(COCc2ccc(Br)cc2)c2cccnc12`: the GI50 in the assay with HCT-15 colon is 0.0475 µM; with OVCAR-8 ovarian, 0.398 µM; with ACHN renal, 0.241 µM; with MOLT-4 leukemia it was 0.495 µM; in the assay on MALME-3M melanoma, 1.44 µM; with SK-OV-3 ovarian, 0.594 µM. The GI50 in the assay on HCC-2998 colon was 0.901 µM; in the assay on SNB-19 CNS, 1.02 µM; with 786-0 renal it was 0.484 µM; in the assay with DU-145 prostate, 0.868 µM. Besides, the TGI in the assay with HCT-15 colon was found to be 1.72 µM; in the assay with OVCAR-8 ovarian it was 1.94 µM; in the assay on ACHN renal it was 1.97 µM; with MOLT-4 leukemia, 2.67 µM; in the assay on MALME-3M melanoma, 5.18 µM; in the assay with SK-OV-3 ovarian, 2.84 µM. Also, the TGI with HCC-2998 colon is 3.61 µM; in the assay with SNB-19 CNS, 15.4 µM; in the assay on 786-0 renal, 2.59 µM; with DU-145 prostate, 11 µM.

Take `O=C(CCCN1CCOCC1)Nc1ccc(Cn2nnc3c2C(=O)c2nnn(Cc4ccc(NC(=O)CCCN5CCOCC5)cc4)c2C3=O)cc1`: the GI50 was > 100 µM with HCT-15 colon; 3.78 µM in the assay on OVCAR-8 ovarian; > 100 µM in the assay on ACHN renal; 1.61 µM with MOLT-4 leukemia; 1.21 µM with MALME-3M melanoma; > 100 µM with SK-OV-3 ovarian. Also, the GI50 in the assay on HCC-2998 colon was 2.62 µM; in the assay with SNB-19 CNS, 1.84 µM; with 786-0 renal it was > 100 µM; with DU-145 prostate it was 7.3 µM. For the same compound, the total growth inhibition concentration (TGI) in the assay on HCT-15 colon was > 100 µM; in the assay on OVCAR-8 ovarian, > 100 µM; with ACHN renal, > 100 µM; in the assay on MOLT-4 leukemia, 4.85 µM; in the assay with MALME-3M melanoma, 2.79 µM; with SK-OV-3 ovarian, > 100 µM. The concentration for total growth inhibition (TGI) with HCC-2998 colon was 5.79 µM; in the assay on SNB-19 CNS it was 3.59 µM; with 786-0 renal, > 100 µM; in the assay with DU-145 prostate, > 100 µM.
